Consider nine molecules from patent publication US20250177363A1, “SUBSTITUTED IMIDAZOPYRIDINYL COMPOUNDS USEFUL AS INHIBITORS OF TLR9” (Bristol-Myers Squibb Company, priority 2022, published 2025).

Common to all, as to assay type: cell-based
The target of one experiment is T1, human TLR7 (Homo sapiens, UniProt Q9NYK1).
T1 construct: host or cells: HEK-Blue cells
T1 sequence (Q9NYK1 27-1049): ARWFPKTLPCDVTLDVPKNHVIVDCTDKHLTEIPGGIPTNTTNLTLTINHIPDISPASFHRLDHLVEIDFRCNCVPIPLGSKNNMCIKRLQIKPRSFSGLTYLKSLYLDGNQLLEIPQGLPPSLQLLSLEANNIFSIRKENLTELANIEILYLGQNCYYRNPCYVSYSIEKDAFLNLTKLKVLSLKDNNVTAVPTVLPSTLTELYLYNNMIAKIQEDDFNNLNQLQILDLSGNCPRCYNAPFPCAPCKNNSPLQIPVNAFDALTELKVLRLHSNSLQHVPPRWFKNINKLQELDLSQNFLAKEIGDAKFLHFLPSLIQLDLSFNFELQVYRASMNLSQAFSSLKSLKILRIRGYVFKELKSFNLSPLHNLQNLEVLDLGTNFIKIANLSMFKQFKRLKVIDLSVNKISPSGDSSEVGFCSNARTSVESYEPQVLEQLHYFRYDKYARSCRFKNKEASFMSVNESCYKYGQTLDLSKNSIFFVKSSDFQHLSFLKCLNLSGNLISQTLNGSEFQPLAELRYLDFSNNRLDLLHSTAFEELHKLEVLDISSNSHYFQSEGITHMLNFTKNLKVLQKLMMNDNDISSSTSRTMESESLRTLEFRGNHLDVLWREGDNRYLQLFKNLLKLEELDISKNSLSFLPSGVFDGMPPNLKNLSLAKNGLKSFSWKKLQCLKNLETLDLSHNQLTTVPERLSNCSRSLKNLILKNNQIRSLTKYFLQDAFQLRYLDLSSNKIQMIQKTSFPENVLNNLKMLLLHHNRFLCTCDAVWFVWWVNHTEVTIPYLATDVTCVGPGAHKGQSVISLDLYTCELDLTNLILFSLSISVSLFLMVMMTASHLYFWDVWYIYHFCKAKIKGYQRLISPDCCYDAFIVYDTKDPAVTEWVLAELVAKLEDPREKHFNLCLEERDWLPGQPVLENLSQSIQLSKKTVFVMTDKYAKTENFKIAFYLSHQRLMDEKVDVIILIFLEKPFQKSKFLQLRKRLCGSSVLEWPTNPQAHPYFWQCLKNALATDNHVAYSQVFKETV
The experiment is described as follows: TLR7 inhibition reporter assay (HEK-Blue, SEAP). The note with it: HEK-Blue cells overexpressing human TLR7, ligand gardiquimod 2.5 μM, 22 hour incubation. An outline of the steps:
(§1)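 HEK-Blue cells expressing human TLR7, TLR8 or TLR9 with NF-κB/AP-1-driven SEAP reporter; compounds 0.85 nM–50 μM, pre-treated 60 min. Stimulation: gardiquimod 2.5 μM (TLR7), R848 14.25 μM (TLR8), ODN2006 200 nM (TLR9); SEAP read after 22 h at 37 °C. Percent inhibition normalized between agonist+DMSO and known-inhibitor wells.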
(In general: A reporter such as luciferase makes a cellular process visible.)

The target in the next experiment is T2, human TLR9 (Homo sapiens, UniProt Q9NR96).
T2 construct: host or cells: HEK-Blue cells
T2 sequence (Q9NR96 26-1032): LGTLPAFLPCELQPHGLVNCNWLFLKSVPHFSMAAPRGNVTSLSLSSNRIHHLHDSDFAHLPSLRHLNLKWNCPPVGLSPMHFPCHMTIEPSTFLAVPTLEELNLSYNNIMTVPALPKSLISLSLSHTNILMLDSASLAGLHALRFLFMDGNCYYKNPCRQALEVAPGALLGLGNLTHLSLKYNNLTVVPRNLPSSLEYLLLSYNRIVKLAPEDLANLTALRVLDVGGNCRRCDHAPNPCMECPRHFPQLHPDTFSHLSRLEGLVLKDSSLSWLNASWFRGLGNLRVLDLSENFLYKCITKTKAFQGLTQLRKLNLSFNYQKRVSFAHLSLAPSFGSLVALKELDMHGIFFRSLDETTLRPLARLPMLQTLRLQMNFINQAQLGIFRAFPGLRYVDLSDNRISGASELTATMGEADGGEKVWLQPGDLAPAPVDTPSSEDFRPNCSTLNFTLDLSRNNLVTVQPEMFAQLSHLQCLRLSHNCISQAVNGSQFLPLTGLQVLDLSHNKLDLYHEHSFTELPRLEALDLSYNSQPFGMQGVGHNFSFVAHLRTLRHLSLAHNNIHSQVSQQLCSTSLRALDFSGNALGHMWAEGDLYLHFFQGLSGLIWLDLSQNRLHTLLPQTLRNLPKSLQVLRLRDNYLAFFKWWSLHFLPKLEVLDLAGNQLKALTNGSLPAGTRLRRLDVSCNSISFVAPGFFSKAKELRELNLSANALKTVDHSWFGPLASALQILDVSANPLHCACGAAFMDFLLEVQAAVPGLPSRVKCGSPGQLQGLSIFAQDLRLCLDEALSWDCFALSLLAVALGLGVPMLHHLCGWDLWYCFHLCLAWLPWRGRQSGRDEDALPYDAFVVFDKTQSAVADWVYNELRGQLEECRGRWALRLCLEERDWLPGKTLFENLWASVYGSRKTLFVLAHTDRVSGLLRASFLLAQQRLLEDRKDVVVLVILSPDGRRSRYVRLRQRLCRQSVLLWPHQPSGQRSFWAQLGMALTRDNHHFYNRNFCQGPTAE
The experiment is described as follows: TLR9 inhibition reporter assay (HEK-Blue, SEAP). Conditions: HEK-Blue cells overexpressing human TLR9, ligand ODN2006 200 nM, 22 hour incubation. The gist of the method:
as §1

A further experiment has as its target T3, human TLR8 (Homo sapiens, UniProt Q9NR97).
T3 construct: host or cells: HEK-Blue cells
T3 sequence (Q9NR97 27-1041): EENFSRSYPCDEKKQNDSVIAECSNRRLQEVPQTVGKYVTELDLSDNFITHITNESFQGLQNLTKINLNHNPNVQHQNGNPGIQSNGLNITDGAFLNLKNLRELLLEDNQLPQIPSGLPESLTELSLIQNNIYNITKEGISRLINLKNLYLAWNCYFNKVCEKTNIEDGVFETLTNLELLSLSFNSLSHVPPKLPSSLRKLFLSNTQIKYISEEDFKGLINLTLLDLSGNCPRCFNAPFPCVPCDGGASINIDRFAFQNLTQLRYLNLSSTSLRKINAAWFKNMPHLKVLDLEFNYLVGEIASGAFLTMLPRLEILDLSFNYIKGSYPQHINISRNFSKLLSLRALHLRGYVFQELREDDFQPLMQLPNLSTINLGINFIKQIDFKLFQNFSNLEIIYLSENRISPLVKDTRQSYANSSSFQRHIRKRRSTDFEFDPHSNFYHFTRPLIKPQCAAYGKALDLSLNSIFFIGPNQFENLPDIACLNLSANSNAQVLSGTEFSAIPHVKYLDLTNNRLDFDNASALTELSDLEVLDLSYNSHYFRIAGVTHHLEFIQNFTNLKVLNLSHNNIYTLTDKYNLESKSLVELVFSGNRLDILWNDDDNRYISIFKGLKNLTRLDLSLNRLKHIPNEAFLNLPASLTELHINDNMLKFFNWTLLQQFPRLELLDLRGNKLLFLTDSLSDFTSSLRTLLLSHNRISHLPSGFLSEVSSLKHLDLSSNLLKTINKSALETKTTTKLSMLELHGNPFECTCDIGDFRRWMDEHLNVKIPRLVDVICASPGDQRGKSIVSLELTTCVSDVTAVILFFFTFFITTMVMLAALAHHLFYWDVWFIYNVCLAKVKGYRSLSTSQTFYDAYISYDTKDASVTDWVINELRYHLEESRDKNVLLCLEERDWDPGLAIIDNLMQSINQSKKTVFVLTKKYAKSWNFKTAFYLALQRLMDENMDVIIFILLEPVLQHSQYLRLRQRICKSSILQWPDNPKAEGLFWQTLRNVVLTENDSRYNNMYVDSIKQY
The experiment is described as follows: TLR8 inhibition reporter assay (HEK-Blue, SEAP). The note with it: HEK-Blue cells overexpressing human TLR8, ligand R848 14.25 μM, 22 hour incubation. An outline of the steps:
as §1

In general, IC50 refers to the concentration that inhibits the measured activity by half. Higher therefore signals weaker potency in that assay.

SMILES strings stand for the structures.

In the case of `Cc1cc(C2CCN(C3CCN(C(C)C)CC3)CC2)nc2c1nc(-c1ccc(S(C)(=O)=O)cc1)n2C` [Example 20, 5-(1′-isopropyl-[1,4′-bipiperidin]-4-yl)-3,7-dimethyl-2-(4-(methylsulfonyl)phenyl)-3H-imidazo[4,5-b]pyridine], the IC50 against human TLR7 was 1400 nM; against human TLR9 it was 25 nM; on human TLR8 it was over 50000 nM.

For `Cc1cc(C2CCN(C3CCN(CC(C)C)CC3)CC2)nc2c1nc(-c1ccc(S(C)(=O)=O)cc1)n2C` [Example 21, 5-(1′-isobutyl-[1,4′-bipiperidin]-4-yl)-3,7-dimethyl-2-(4-(methylsulfonyl)phenyl)-3H-imidazo[4,5-b]pyridine], the 50% inhibitory concentration (IC50) against human TLR7 is 4400 nM; on human TLR9 it was 24 nM; against human TLR8 it was over 50000 nM.

For `Cc1cc(C2CCN(C3CCN(CC(C)(C)O)CC3)CC2)nc2c1nc(-c1ccc(S(C)(=O)=O)cc1)n2C` [Example 22, 1-(4-(3,7-dimethyl-2-(4-(methylsulfonyl)phenyl)-3H-imidazo[4,5-b]pyridin-5-yl)-[1,4′-bipiperidin]-1′-yl)-2-methylpropan-2-ol], the figures for the IC50 on human TLR7, against human TLR9 and at human TLR8 were 1300 nM, 26 nM and over 25000 nM, respectively.

As to `Cc1cc(C2CCN(C3CCN(CC4CC4)CC3)CC2)nc2c1nc(-c1ccc(S(C)(=O)=O)cc1)n2C` [Example 23, 5-(1′-(cyclopropylmethyl)-[1,4′-bipiperidin]-4-yl)-3,7-dimethyl-2-(4-(methylsulfonyl)phenyl)-3H-imidazo[4,5-b]pyridine], the figures for the 50% inhibitory concentration (IC50) at human TLR7, on human TLR9 and against human TLR8 were 1900 nM, 61 nM and over 50000 nM, respectively.

In the case of `Cc1cc(C2CCN(C3CCN(C4CCC4)CC3)CC2)nc2c1nc(-c1ccc(S(C)(=O)=O)cc1)n2C` [Example 24, 5-(1′-cyclobutyl-[1,4′-bipiperidin]-4-yl)-3,7-dimethyl-2-(4-(methylsulfonyl)phenyl)-3H-imidazo[4,5-b]pyridine], the 50% inhibitory concentration (IC50) on human TLR7 is 5400 nM; at human TLR9 it was 240 nM; on human TLR8, over 50000 nM.

In the case of `Cc1cc(C2CCN(C3CCN(C4CCOCC4)CC3)CC2)nc2c1nc(-c1ccc(S(C)(=O)=O)cc1)n2C` [Example 25, 3,7-dimethyl-2-(4-(methylsulfonyl)phenyl)-5-(1′-(tetrahydro-2H-pyran-4-yl)-[1,4′-bipiperidin]-4-yl)-3H-imidazo[4,5-b]pyridine], the figures for the IC50 against human TLR7, against human TLR9 and at human TLR8 were 4100 nM, 42 nM and over 50000 nM, respectively.

For the molecule `Cc1cc(C2CCN(C3CC4CCC(C3)N4C3CCC3)CC2)nc2c1nc(-c1ccc(S(C)(=O)=O)cc1)n2C` (stereo not drawn) [Example 32, 5-(1-(8-cyclobutyl-8-azabicyclo[3.2.1]octan-3-yl)piperidin-4-yl)-3,7-dimethyl-2-(4-(methylsulfonyl)phenyl)-3H-imidazo[4,5-b]pyridine], the IC50 was 1600 nM on human TLR7, 42 nM against human TLR9 and over 50000 nM against human TLR8.

`Cc1cc(C2CCN(C3CC4CCC(C3)N4C3CCC3)CC2)nc2c1nc(-c1ccc(S(C)(=O)=O)cc1)n2C` (stereo not drawn) [Example 33, 5-(1-(8-cyclobutyl-8-azabicyclo[3.2.1]octan-3-yl)piperidin-4-yl)-3,7-dimethyl-2-(4-(methylsulfonyl)phenyl)-3H-imidazo[4,5-b]pyridine]: the concentration for half-maximal inhibition (IC50) against human TLR7 came to 1500 nM; against human TLR9, 69 nM; against human TLR8 it was 19000 nM.

In the case of `COc1ccc(-c2nc3c(C)cc(C4CCN([C@H]5C[C@@H]6CN(C(C)C)C[C@@H]6C5)CC4)nc3n2C)cc1OC` [Example 36, 2-(3,4-dimethoxyphenyl)-5-(1-((3aR,5s,6aS)-2-isopropyloctahydrocyclopenta[c]pyrrol-5-yl)piperidin-4-yl)-3,7-dimethyl-3H-imidazo[4,5-b]pyridine], the results for the concentration for half-maximal inhibition (IC50) against human TLR7, against human TLR9 and against human TLR8 were 1000 nM, 140 nM and over 50000 nM, respectively.
